What follows are compounds tested on normal male SD rats (assay: Plasma Ca^2+ level of rats after single oral administration). Conditions: rat, mean of six animals, 1 hr after single oral dose 30 μmol/kg; vehicle 10% cyclodextrin (** 1% sodium-CMC).
Assay type: in vivo
Method: The compound of the present invention was administered to rats so as to examine the effects of the compound on the plasma calcium ion level and serum PTH level. The test was performed by orally administering single dose of the compound of the invention or a control compound to normal male SD rats with six animals in each group.
To the group 1 was administered as a control a 10% cyclodextrin aqueous solution in a dose of 2.5 ml/kg. To the group 2 was administered as a reference (R)-N-(3-(2-chlorophenyl)propyl)-1-(3-methoxyphenyl)ethylamine (KRN568) dissolved in a 10% cyclodextrin aqueous solution in a dose of 30 μmol/kg. To the group 3 was administered the compound of the present invention dissolved in a 10% cyclodextrin aqueous solution in a dose of 30 μmol/kg, provided that 1% sodium-CMC aqueous solution was used in place of 10% cyclodextrin aqueous solution for the compounds marked with ** in Table 2.
Blood of each rat was collected from the tail tip before the administration and 30 minutes and 1, 2, 4, 8 and 24 hours thereafter (or at the time indicated in Table 2), and the plasma Ca^2+ level and serum PTH level were measured. The data of the serum PTH level were statistically processed by the multiple comparison analysis in accordance with Steel's calibration by using the group 1 as the control.
For `COc1cccc([C@@H](C)NCCCc2ccccc2Cl)c1` [KRN568, (R)-N-(3-(2-chlorophenyl)propyl)-1-(3-methoxyphenyl)ethylamine, reference compound], the “Plasma Ca^2+ (mmol/l) 1 hr” value was 1.305 mmol/L.

Same assay, conditions: rat, mean of six animals, 2 hr after single oral dose 30 μmol/kg; vehicle 10% cyclodextrin (** 1% sodium-CMC)
In the case of `COc1cccc([C@@H](C)NCCCc2ccccc2Cl)c1` [KRN568, (R)-N-(3-(2-chlorophenyl)propyl)-1-(3-methoxyphenyl)ethylamine, reference compound], the “Plasma Ca^2+ (mmol/l) 2 hr” value is reported as 1.237 mmol/L.

Same assay, conditions: rat, mean of six animals, 4 hr after single oral dose 30 μmol/kg; vehicle 10% cyclodextrin (** 1% sodium-CMC)
In the case of `COc1cccc([C@@H](C)NCCCc2ccccc2Cl)c1` [KRN568, (R)-N-(3-(2-chlorophenyl)propyl)-1-(3-methoxyphenyl)ethylamine, reference compound], the “Plasma Ca^2+ (mmol/l) 4 hr” value is reported as 1.290 mmol/L.

Same assay, conditions: rat, mean of six animals, 8 hr after single oral dose 30 μmol/kg; vehicle 10% cyclodextrin (** 1% sodium-CMC)
For `COc1cccc([C@@H](C)NCCCc2ccccc2Cl)c1` [KRN568, (R)-N-(3-(2-chlorophenyl)propyl)-1-(3-methoxyphenyl)ethylamine, reference compound], the “Plasma Ca^2+ (mmol/l) 8 hr” value was 1.340 mmol/L.

Each compound was assayed against T1, human calcium receptor (Homo sapiens, UniProt P41180) (assay: Activity on calcium receptors: fluo-3 fluorescence in HEK293 cells transfected with human calcium receptor gene). Conditions: HEK293 cells transfected with plasmid pHuPCaR4.0 (human calcium receptor gene), loaded with fluo-3; 1 mM CaCl2, 1 mM MgCl2.
T1 construct: expressed in transfected cells; host or cells: HEK293
T1 sequence (P41180 20-1078): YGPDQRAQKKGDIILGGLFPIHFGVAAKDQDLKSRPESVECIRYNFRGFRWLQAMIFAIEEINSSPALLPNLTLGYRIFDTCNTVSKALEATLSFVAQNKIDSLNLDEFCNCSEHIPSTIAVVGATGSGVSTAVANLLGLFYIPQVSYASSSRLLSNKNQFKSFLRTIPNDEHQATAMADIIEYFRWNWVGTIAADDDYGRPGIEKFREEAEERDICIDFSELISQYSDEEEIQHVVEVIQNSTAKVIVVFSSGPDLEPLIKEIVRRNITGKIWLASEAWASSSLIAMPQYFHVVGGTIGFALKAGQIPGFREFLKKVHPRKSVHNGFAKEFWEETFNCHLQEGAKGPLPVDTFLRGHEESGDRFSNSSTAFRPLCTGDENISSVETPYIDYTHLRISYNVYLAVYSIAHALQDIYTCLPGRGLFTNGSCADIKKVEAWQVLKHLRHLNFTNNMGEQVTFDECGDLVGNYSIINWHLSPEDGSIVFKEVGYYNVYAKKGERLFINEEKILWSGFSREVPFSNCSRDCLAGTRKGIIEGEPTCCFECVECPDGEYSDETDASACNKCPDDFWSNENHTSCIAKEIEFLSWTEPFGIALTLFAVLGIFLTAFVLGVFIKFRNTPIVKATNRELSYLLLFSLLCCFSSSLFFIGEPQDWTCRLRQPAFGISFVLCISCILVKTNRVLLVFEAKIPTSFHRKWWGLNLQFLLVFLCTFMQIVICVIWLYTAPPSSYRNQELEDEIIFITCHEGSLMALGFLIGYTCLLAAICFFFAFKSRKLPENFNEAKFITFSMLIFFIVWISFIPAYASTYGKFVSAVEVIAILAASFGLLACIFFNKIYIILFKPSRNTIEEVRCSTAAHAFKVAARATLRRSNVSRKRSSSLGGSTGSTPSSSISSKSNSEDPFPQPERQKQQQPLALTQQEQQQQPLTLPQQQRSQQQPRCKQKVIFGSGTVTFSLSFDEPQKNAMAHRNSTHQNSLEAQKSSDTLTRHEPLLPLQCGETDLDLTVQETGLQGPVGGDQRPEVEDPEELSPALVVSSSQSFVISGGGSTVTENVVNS
Assay type: cell-based
Method: The activities of the compounds of the present invention on calcium receptors were measured. The measurement was performed in accordance with the method described in Example 4 of Nemeth et al., PCT/US95/13704 (International Publication No. WO96/12697). In brief, HEK293 cells were transfected with a plasmid pHuPCaR4.0 containing a human calcium receptor gene and loaded with fluo-3. The loading was carried out by incubating the cells at 37° C. for 1 hour in Dulbecco's modified Eagle's medium which contained about 5 μM of fluo-3/AM and had been buffered with 20 mM HEPES. Next, the cells were rinsed with Hank's balanced salt solution which contained 1 mM CaCl2 and 1 mM MgCl2 and had been buffered with 20 mM HEPES. Then each test compound was added to the cells and the fluorescence was measured with the use of an excitation wavelength of 485 nm and an emission wavelength of 540 nm.
With `COc1cccc(C(C)NCCCCCCOc2ccc(Br)cc2)c1` (stereo not shown) [Compound K-2006] the EC50 was 0.77 µM. `COc1cccc(C(C)NCCCCCSc2nc3ccccc3s2)c1` (stereo not shown) [Compound 38] gave an EC50 of 0.98 µM. Compound `COc1cccc(C(C)NCCCOc2ccc(Br)cc2)c1` (stereo not shown) [Compound K-2003] has an EC50 of 0.29 µM. Work on `COc1cccc(C(C)NCCCSc2ccccc2Cl)c1` (stereo not shown) [Compound 20] yielded an EC50 of 3.2 µM. `COc1cccc(C(C)NCCCCCCSc2ccc(C(F)(F)F)cc2)c1` (stereo not shown) [Compound K-2058] was tested, and the EC50 was 0.39 µM. Compound `COc1cccc(C(C)NCCCSc2cccc(Br)c2)c1` (stereo not shown) [Compound K-2046] has an EC50 of 0.14 µM. Work on `Cc1ccc(SCCCCNC(C)c2cccc3ccccc23)cc1C` (stereo not shown) [Compound S-52] yielded an EC50 of 0.16 µM. For `COc1cccc(C(C)NCCCCOc2cccc(Cl)c2)c1` (stereo not shown) [Compound 8], the EC50 was 1.9 µM. For `C[C@@H](NCCSc1cc(Cl)ccc1Cl)c1cccc2ccccc12` [Compound K-2117, (R)-N-[1-(1′-naphthyl)ethyl]-2-(2′,5′-dichlorophenylthio)ethylamine], the EC50 was 0.043 µM. Work on `CC(NCCCOc1ccc2oc(-c3ccccc3)cc(=O)c2c1)c1cccc2ccccc12` (stereo not shown) [Compound 103] yielded an EC50 of 0.3 µM. Compound `COc1cccc([C@@H](C)NCCCCCSc2cccc(C(F)(F)F)c2)c1` [Compound K-2011] has an EC50 of 0.21 µM. With `CC(C)c1ccccc1SCCNC(C)c1cccc2ccccc12` (stereo not shown) [Compound S-202] the EC50 was 0.15 µM. In the case of `COc1cccc([C@@H](C)NCCCCCCCOc2ccc(Br)cc2)c1` [Compound K-2007], the EC50 is reported as 0.47 µM. Work on `CC(NCCSc1cccc(C(F)(F)F)c1)c1cccc2ccccc12` (stereo not shown) [Compound K-2275] yielded an EC50 of 0.27 µM. `COc1cccc(C(C)NCCCCCSc2cccc(Br)c2)c1` (stereo not shown) [Compound K-2048] was tested, and the EC50 was 0.73 µM. `COc1cccc(C(C)NCCCCOc2ccc(Br)cc2)c1` (stereo not shown) [Compound K-2004] showed an EC50 of 0.42 µM. Compound `COc1cccc(C(C)NCCCCSc2ccc(Cl)c(Cl)c2)c1` (stereo not shown) [Compound K-2079] has an EC50 of 0.2 µM. Compound `COc1cccc(C(C)NCCSc2cccc(Br)c2)c1` (stereo not shown) [Compound K-2045] has an EC50 of 0.87 µM. `COc1cccc(C(C)NCCCOc2ccc3c(c2)Cc2ccccc2-3)c1` (stereo not shown) [Compound 59] was tested, and the EC50 was 1.02 µM. Work on `COc1cccc(C(C)NCCCSc2ccc(Cl)cc2)c1` (stereo not shown) [Compound 28] yielded an EC50 of 1.6 µM. `COc1ccc(SCCCCN[C@H](C)c2cccc3ccccc23)cc1` [Compound K-2314] was tested, and the EC50 was 0.29 µM. For `CC(NCCC(=O)N(Cc1ccccc1Cl)Cc1ccccc1Cl)c1cccc2ccccc12` (stereo not shown) [Compound K-2254], the EC50 was 0.088 µM. `COc1cccc(C(C)NCCCSc2ccc3ccccc3c2)c1` (stereo not shown) [Compound 77] was tested, and the EC50 was 1 µM. In the case of `COc1cccc([C@@H](C)NCCCOc2ccc(-c3ccccc3)cc2)c1` [Compound 83], the EC50 is reported as 1 µM. `COc1cccc(C(C)NCCCCCCSc2ccc([N+](=O)[O-])cc2)c1` (stereo not shown) [Compound K-2035] showed an EC50 of 0.22 µM. Compound `COc1cccc(C(C)NCCCCCSc2ccccc2Cl)c1` (stereo not shown) [Compound 24] has an EC50 of 0.44 µM. `C[C@@H](NCCC(=O)N(Cc1ccccc1)Cc1ccc2ccccc2c1)c1cccc2ccccc12` [Compound K-2248] gave an EC50 of 0.078 µM. `COc1cccc(C(C)NCCCNC(C)c2cccc(OC)c2)c1` (stereo not shown) [Compound 88] was tested, and the EC50 was 3.2 µM. Compound `COc1cccc(C(C)NCCCOc2ccccc2Cl)c1` (stereo not shown) [Compound 62] has an EC50 of 0.509 µM. Compound `COc1cccc(C(C)NCCCCCCCSc2ccc(Cl)c(Cl)c2)c1` (stereo not shown) [Compound K-2082] has an EC50 of 2.81 µM. In the case of `COc1cccc(C(C)NCCCCCOc2cccc(Cl)c2)c1` (stereo not shown) [Compound 10], the EC50 is reported as 1 µM. `COc1cccc(C(C)NCCCCCCOc2ccc(Cl)cc2)c1` (stereo not shown) [Compound 18] showed an EC50 of 0.75 µM. `COc1cccc(C(C)NCCCCCOc2ccc(Br)cc2)c1` (stereo not shown) [Compound K-2005] was tested, and the EC50 was 0.43 µM.

— patent US7816408B2, “Calcium receptor active compounds” (NPS Pharmaceuticals, Inc., priority 2002, dated 2010)
